A value given as a limit tells only on which side of the number the result lay.

The target of one assay is T1, Human KDR (Homo sapiens, UniProt P35968).
T1 construct: Human KDR (residues K790-V1356, 55 nM); purchased Eurofins Pharma Discovery Services UK Limited (KinaseProfiler, B-1) and/or CarnaBio (B-2)
The assay is described as follows: Human KDR kinase assay (33P radiometric / HTRF KinEase). The note with it: protocols of Examples B-1 and/or B-2. In kind it is biochemical. An outline of the steps: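 Radiometric: KDR K790-V1356 (55 nM), MOPS pH 7.0, myelin basic protein, 10 μM [γ-33P]ATP, 40 min at room temperature, filter-bound 33P counted; nine half-log doses, top 1 μM. HTRF: KDR 790-1356, 1 μM biotinylated peptide, ATP at Km (4.0 μM), 40 min, 10 doses. IC50 from logistic fits.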

Another assay addresses T2, Human Met (Homo sapiens, UniProt P08581).
T2 construct: Human MET (residues 956-1390)
The assay is described as follows: Human Met kinase assay (33P radiometric / HTRF KinEase). It is filed as biochemical. The note with it: protocols of Examples D-1 and/or D-2; read-out: c-Met IC50. An outline of the steps: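 Two formats gave IC50s by curve fitting. HTRF KinEase used MET residues 956-1390 with 1 μM biotin-peptide and 3.0 μM ATP (Km) for 40 min at room temperature, ten doses in 3% DMSO, 665/620 nm read. The 33P transfer assay used mutant Met R974-S1390 A1209G/V1290L (3.4 nM), 10 μM ATP, 250 μM peptide, pH 7.0, 40 min, nine doses from 1 μM.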

T2 sequence (P08581 974-1390 limits assumed): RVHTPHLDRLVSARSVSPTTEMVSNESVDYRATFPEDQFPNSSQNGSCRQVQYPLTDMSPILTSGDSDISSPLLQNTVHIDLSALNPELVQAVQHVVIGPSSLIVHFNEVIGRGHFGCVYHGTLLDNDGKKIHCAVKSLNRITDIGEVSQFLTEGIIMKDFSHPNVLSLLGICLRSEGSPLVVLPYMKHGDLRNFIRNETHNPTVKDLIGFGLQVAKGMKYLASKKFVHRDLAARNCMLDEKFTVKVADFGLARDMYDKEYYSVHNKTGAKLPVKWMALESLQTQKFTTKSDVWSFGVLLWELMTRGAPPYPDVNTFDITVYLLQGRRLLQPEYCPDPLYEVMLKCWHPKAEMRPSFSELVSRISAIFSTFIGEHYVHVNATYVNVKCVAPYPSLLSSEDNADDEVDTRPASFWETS
T1 sequence (P35968 790-1356): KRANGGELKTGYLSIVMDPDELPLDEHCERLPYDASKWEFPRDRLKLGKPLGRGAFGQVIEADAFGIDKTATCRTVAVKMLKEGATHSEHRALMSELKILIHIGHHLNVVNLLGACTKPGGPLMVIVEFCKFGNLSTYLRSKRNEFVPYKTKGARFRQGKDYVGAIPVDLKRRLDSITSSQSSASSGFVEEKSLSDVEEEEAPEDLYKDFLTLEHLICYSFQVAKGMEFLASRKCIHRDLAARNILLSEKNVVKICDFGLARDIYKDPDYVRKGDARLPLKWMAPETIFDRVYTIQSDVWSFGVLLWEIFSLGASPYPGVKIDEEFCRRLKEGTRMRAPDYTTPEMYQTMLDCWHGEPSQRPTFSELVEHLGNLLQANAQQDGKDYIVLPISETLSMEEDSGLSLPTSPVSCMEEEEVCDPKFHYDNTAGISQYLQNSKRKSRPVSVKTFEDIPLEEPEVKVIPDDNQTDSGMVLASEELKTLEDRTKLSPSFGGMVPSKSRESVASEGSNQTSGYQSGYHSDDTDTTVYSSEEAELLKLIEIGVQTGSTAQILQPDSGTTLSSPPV

Consider `COc1cc2nccc(Oc3ccc(NC(=O)c4c5n(cc(C6=CCOCC6)c4=O)CCOC5)cc3)c2nc1OC` [Compound G1-8, 7-(3,6-Dihydro-2H-pyran-4-yl)-N-[4-[(6,7-dimethoxy-1,5-naphthyridin-4-yl)oxy]phenyl]-8-oxo-3,4-dihydro-1H-pyrido[2,1-c][1,4]oxazine-9-carboxamide], for which the 50% inhibitory concentration (IC50) against Human KDR and at Human Met was greater than 300 nM each time.
With `COc1cc2nccc(Oc3ccc(NC(=O)c4c(C)n(C)c(C)c(N5CCCC5)c4=O)cc3F)c2nc1OC` [Compound 89, N-[4-[(6,7-Dimethoxy-1,5-naphthyridin-4-yl)oxy]-3-fluorophenyl]-1,2,6-trimethyl-4-oxo-5-pyrrolidin-1-ylpyridine-3-carboxamide], the 50% inhibitory concentration (IC50) against Human KDR and on Human Met was no more than 100 nM each time.
With `COc1cc2nccc(Oc3ccc(NC(=O)c4cnc(C)c(/C=C/CC(C)C)c4O)cc3F)c2nc1OC` [Compound 28, N-[4-[(6,7-Dimethoxy-1,5-naphthyridin-4-yl)oxy]-3-fluorophenyl]-4-hydroxy-6-methyl-5-[(E)-4-methylpent-1-enyl]pyridine-3-carboxamide], the IC50 against Human KDR is no more than 100 nM; at Human Met, greater than 300 nM.
Regarding `COc1cc2nccc(Oc3ccc(NC(=O)c4c(C)n(C)c(C)c(N5CCCCC5)c4=O)cc3F)c2nc1OC` [Compound 90, N-[4-[(6,7-dimethoxy-1,5-naphthyridin-4-yl)oxy]-3-fluorophenyl]-1,2,6-trimethyl-4-oxo-5-piperidin-1-ylpyridine-3-carboxamide], the IC50 on Human KDR was 100 to 300 nM; at Human Met, greater than 300 nM.
`COc1ccc2nccc(Oc3ccc(NC(=O)c4cnc(C)c(C5=CCCCC5)c4O)cc3F)c2n1` [Compound 1-6, 5-(Cyclohexen-1-yl)-N-[3-fluoro-4-[(6-methoxy-1,5-naphthyridin-4-yl)oxy]phenyl]-4-hydroxy-6-methylpyridine-3-carboxamide]: the IC50 at Human KDR is 100 to 300 nM; at Human Met, no more than 100 nM.
Take `COCCOc1cc2nccc(Oc3cc(F)c(NC(=O)c4c(C)nc(C)c(C(N)=O)c4O)cc3F)c2nc1OC` [Compound 86, 3-N-[2,5-Difluoro-4-[[6-methoxy-7-(2-methoxyethoxy)-1,5-naphthyridin-4-yl]oxy]phenyl]-4-hydroxy-2,6-dimethylpyridine-3,5-dicarboxamide]: the IC50 on Human KDR and at Human Met was greater than 300 nM in each case.
Take `COCCOc1cc2nccc(Oc3ccc(NC(=O)c4cnc(C)c(C5=CCOCC5)c4O)cc3F)c2nc1OC` [Compound 35, 5-(3,6-Dihydro-2H-pyran-4-yl)-N-[3-fluoro-4-[[6-methoxy-7-(2-methoxyethoxy)-1,5-naphthyridin-4-yl]oxy]phenyl]-4-hydroxy-6-methylpyridine-3-carboxamide]: the IC50 against Human KDR and on Human Met was no more than 100 nM throughout.
`COc1cc2nccc(Oc3ccc(NC(=O)c4c5n(c(C)c(C6=CCCC6)c4=O)CCOC5)cc3)c2nc1OC` [Compound 99, 7-(Cyclopenten-1-yl)-N-[4-[(6,7-dimethoxy-1,5-naphthyridin-4-yl)oxy]phenyl]-6-methyl-8-oxo-3,4-dihydro-1H-pyrido[2,1-c][1,4]oxazine-9-carboxamide]: the IC50 against Human KDR is greater than 300 nM; at Human Met, no more than 100 nM.
Turning to `COc1cc2nccc(Oc3ccc(NC(=O)c4cnc(C)c(/C=C/C(C)(C)C)c4O)cc3F)c2nc1OC` [Compound 27, N-[4-[(6,7-Dimethoxy-1,5-naphthyridin-4-yl)oxy]-3-fluorophenyl]-5-[(E)-3,3-dimethylbut-1-enyl]-4-hydroxy-6-methylpyridine-3-carboxamide], the IC50 on Human KDR and at Human Met was no more than 100 nM in each case.
As for `COc1cc2nccc(Oc3ccc(NC(=O)c4c(C)n(C)c(C)c(C5CC5)c4=O)cc3)c2nc1OC` [Compound 48, 5-Cyclopropyl-N-[4-[(6,7-dimethoxy-1,5-naphthyridin-4-yl)oxy]phenyl]-1,2,6-trimethyl-4-oxopyridine-3-carboxamide], the half-maximal inhibitory concentration (IC50) against Human KDR and on Human Met was greater than 300 nM each time.
With `COc1cc2nccc(Oc3ccc(NC(=O)c4c(C)nc(C)c(C(=O)N(C)C)c4O)cc3F)c2nc1OC` [Compound 93, 3-N-[4-[(6,7-Dimethoxy-1,5-naphthyridin-4-yl)oxy]-3-fluorophenyl]-4-hydroxy-5-N,5-N,2,6-tetramethylpyridine-3,5-dicarboxamide], the half-maximal inhibitory concentration (IC50) against Human KDR and on Human Met was no more than 100 nM throughout.
For the compound `COc1cc2nccc(Oc3ccc(NC(=O)c4c5n(c(C)c(C6=CCCCC6)c4=O)CCOC5)cc3F)c2nc1OC` [Compound 80, 7-(Cyclohexen-1-yl)-N-[4-[(6,7-dimethoxy-1,5-naphthyridin-4-yl)oxy]-3-fluorophenyl]-6-methyl-8-oxo-3,4-dihydro-1H-pyrido[2,1-c][1,4]oxazine-9-carboxamide], the 50% inhibitory concentration (IC50) against Human KDR and at Human Met was no more than 100 nM in each case.
With `COc1cc2nccc(Oc3ccc(NC(=O)c4cn(CCF)c(C)c(C5=CCCCC5)c4=O)cc3F)c2nc1OC` [Compound 8, 5-(Cyclohexen-1-yl)-N-[4-[(6,7-dimethoxy-1,5-naphthyridin-4-yl)oxy]-3-fluorophenyl]-1-(2-fluoroethyl)-6-methyl-4-oxopyridine-3-carboxamide], the concentration for half-maximal inhibition (IC50) against Human KDR and at Human Met was no more than 100 nM each time.
As to `COc1cc2nccc(Oc3ccc(NC(=O)c4c(C)n(C)c(C)c(C5CC5)c4=O)cc3F)c2nc1OC` [Compound 46, 5-Cyclopropyl-N-[4-[(6,7-dimethoxy-1,5-naphthyridin-4-yl)oxy]-3-fluorophenyl]-1,2,6-trimethyl-4-oxopyridine-3-carboxamide], the IC50 against Human KDR and at Human Met was greater than 300 nM each time.
As for `COc1ccc2nccc(Oc3ccc(NC(=O)c4cnc(C)c(C5=CCCC5)c4O)cc3F)c2n1` [Compound 1-7, 5-(Cyclopenten-1-yl)-N-[3-fluoro-4-[(6-methoxy-1,5-naphthyridin-4-yl)oxy]phenyl]-4-hydroxy-6-methylpyridine-3-carboxamide], the half-inhibitory concentration (IC50) against Human KDR and at Human Met was no more than 100 nM in each case.
For the compound `COc1cc2nccc(Oc3ccc(NC(=O)c4cnc(C)c(/C=C/C5CCCC5)c4O)cc3F)c2nc1OC` [Compound 25, 5-[(E)-2-Cyclopentylethenyl]-N-[4-[(6,7-dimethoxy-1,5-naphthyridin-4-yl)oxy]-3-fluorophenyl]-4-hydroxy-6-methylpyridine-3-carboxamide], the IC50 is no more than 100 nM against Human KDR and greater than 300 nM at Human Met.
As for `COc1cc2nccc(Oc3ccc(NC(=O)c4c(C)n(C)c(C)c(/C=C/C(C)(C)C)c4=O)cc3F)c2nc1OC` [Compound 49, N-[4-[(6,7-Dimethoxy-1,5-naphthyridin-4-yl)oxy]-3-fluorophenyl]-5-[(E)-3,3-dimethylbut-1-enyl]-1,2,6-trimethyl-4-oxopyridine-3-carboxamide], the 50% inhibitory concentration (IC50) at Human KDR is no more than 100 nM; on Human Met, greater than 300 nM.
The like results for `COc1cc2nccc(Oc3ccc(NC(=O)c4c(C)ccn(C(C)C)c4=O)cc3F)c2nc1OC` [Compound 38, N-[4-[(6,7-Dimethoxy-1,5-naphthyridin-4-yl)oxy]-3-fluorophenyl]-4-methyl-2-oxo-1-propan-2-ylpyridine-3-carboxamide] were, in that order, 100 to 300 nM and greater than 300 nM.

The values above are taken from patent US20240158393A1, “PYRIDONE COMPOUNDS AND METHODS OF USE” (Exelixis, Inc., priority 2021, published 2024).
